In US9938273B2 (Plexxikon Inc., priority 2015, dated 2018):

Experiments:
[1] = system: MOLM-14 D835Y cells, FLT3 ITD and FLT3 D835Y; assay: Cell proliferation assay (CellTiter-Glo), MOLM-14 D835Y; type: cell-based; conditions: Homo sapiens, 72 h, 3d-Growth, GMean
Method in brief: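 Three-day growth at 37 °C, 5% CO2 under compound (1 μM top final, 1:3 dilutions, eight points, 0.2% DMSO), read as ATP luminescence by CellTiter-Glo for IC50. Cells: MOLM-14 with FLT3 ITD plus D835Y or F691L, and IL-3-deprived Ba/F3 transfected with FLT3 ITD/D835Y, 1×10^4 per well.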

FLT3-ITD = molecular target: T1, FLT3-ITD (Homo sapiens, UniProt P36888); assay: AlphaScreen kinase assay with recombinant enzyme, FLT3-ITD; type: biochemical; conditions: 8pt; read-out: FLT3_ITD 8pt: IC50
T1 sequence (P36888 1-993): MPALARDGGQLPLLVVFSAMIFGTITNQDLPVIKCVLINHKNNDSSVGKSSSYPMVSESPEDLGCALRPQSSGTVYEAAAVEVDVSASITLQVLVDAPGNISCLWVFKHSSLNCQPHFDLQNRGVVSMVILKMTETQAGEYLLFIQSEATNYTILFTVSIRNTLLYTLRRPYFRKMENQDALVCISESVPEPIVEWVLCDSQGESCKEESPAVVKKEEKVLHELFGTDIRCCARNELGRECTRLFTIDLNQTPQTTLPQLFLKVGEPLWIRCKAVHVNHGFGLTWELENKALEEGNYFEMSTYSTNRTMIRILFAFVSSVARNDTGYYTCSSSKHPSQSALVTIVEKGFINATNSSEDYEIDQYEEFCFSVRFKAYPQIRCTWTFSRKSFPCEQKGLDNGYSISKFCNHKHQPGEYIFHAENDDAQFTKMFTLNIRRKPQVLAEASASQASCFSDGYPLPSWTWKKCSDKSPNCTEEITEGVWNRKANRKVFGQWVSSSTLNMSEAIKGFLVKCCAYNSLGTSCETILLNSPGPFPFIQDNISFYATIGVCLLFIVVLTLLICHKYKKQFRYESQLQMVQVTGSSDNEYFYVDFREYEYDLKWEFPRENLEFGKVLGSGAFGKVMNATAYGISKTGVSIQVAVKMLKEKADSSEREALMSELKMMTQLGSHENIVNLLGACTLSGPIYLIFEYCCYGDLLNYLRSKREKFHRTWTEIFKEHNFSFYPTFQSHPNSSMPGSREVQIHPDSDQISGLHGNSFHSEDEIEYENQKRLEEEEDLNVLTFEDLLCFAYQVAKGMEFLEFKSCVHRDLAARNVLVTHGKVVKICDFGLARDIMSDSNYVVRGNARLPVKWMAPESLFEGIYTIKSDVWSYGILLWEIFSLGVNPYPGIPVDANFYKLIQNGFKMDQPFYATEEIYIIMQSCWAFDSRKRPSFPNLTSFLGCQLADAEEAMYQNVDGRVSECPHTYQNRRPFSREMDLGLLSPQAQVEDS
Experimental: In order to determine the effect of compounds on FLT3 catalytic activity, kinase assays using recombinant enzymes and AlphaScreen® technology have been established. The catalytic activity of c-kit activity was also measured to determine selectivity of the compounds. When the kinases are catalytically active, they phosphorylate a biotinylated peptide substrate on tyrosine residues. Using AlphaScreen® technology, the ability of the compounds to affect the catalytic activity of the kinases can be measured quantitatively. The peptide substrate is immobilized by the AlphaScreen® Streptavidin Donor beads and, upon phosphorylation by a tyrosine kinase, can bind to AlphaScreen® Anti-Phosphotyrosine (PY20) Acceptor beads. Upon excitation of these beads with laser light at 680 nm, singlet oxygen is produced. This singlet oxygen is rapidly quenched, unless the AlphaScreen® Anti-Phosphotyrosine (PY20) Acceptor beads are in close proximity, in which case a proximity signal can be measured at 580 nm. In the presence of catalytic activity, there is a very strong proximity signal. Selective kinase inhibitors affect a decrease in this proximity signal through a decrease in tyrosine phosphorylation of the peptide substrate.
The assay was performed as summarized below.
Poly (Glu4-Tyr) Peptide, biotin conjugate [Biotin-GG(EEEEY)10EE] (SEQ ID NO: 4)
Final concentration=30 nM
Final concentration for IC50 determination=10 μM (FLT3-D835Y or FLT3-ITD) or 100 μM (c-KIT)
AlphaScreen® Phosphotyrosine (PY20) Assay Kit
Final concentration=10 μg/mL
Dilute compounds in DMSO to 20× final concentration.
Add 1 μl of compound to each well of 384 well reaction plate (Perkin Elmer #6005359).
Mix enzyme and Poly (Glu4-Tyr) Peptide substrate at 1.33× final concentration in assay buffer.
Mix ATP at 5× final concentration in assay buffer.
Add 15 μL enzyme/substrate mixture to the reaction plate.
Add 4 μL of ATP to the reaction plate.
Mix Streptavidin Donor beads at 6× final concentration in Stop/Detection buffer.
Add 5 μL Streptavidin Donor beads to the reaction plate. Centrifuge 1 minute, shake to mix, and incubate at room temperature for 20 minutes.
Mix Anti-Phosphotyrosine (PY20) Acceptor beads at 6× final concentration in Stop/Detection buffer.
Add 5 μL Anti-Phosphotyrosine (PY20) beads to the reaction plate.
Centrifuge 1 minute, shake to mix, and incubate at room temperature for 60 minutes.
Read plate on Wallac EnVision™ 2103 Multilabel Reader.

| SMILES | IC50 [1] [µM] | IC50 (FLT3-ITD) [µM] |
| --- | --- | --- |
| CC(C)(C#N)NC(=O)c1cccc(-c2cnc3[nH]c(-c4ccccc4)cc3c2)n1 [Compound P-0118, N-(1-cyano-1-methyl-ethyl)-6-(2-phenyl-1H-pyrrolo[2,3-b]pyridin-5-yl)pyridine-2-carboxamide] | 0.0001 to 10 | 0.0001 to 10 |
| CN(CCC#N)C(=O)c1cccc(-c2cnc3[nH]c(-c4ccccc4)cc3c2)n1 [Compound P-0119, N-(2-cyanoethyl)-N-methyl-6-(2-phenyl-1H-pyrrolo[2,3-b]pyridin-5-yl)pyridine-2-carboxamide] | 0.0001 to 10 | 0.0001 to 10 |
| N#CC1CCN(C(=O)c2cccc(-c3cnc4[nH]c(C5=CCCCC5)cc4c3)n2)C1 (stereo not shown) [Compound P-0120, 1-[6-[2-(cyclohexen-1-yl)-1H-pyrrolo[2,3-b]pyridin-5-yl]pyridine-2-carbonyl]pyrrolidine-3-carbonitrile] | 0.0001 to 10 | 0.0001 to 10 |
| N#C[C@@H]1CCN(C(=O)c2cccc(-c3cnc4[nH]c(-c5ccccc5)cc4c3)n2)C1 [Compound P-0122, (3R)-1-[6-(2-phenyl-1H-pyrrolo[2,3-b]pyridin-5-yl)pyridine-2-carbonyl]pyrrolidine-3-carbonitrile] | 0.0001 to 10 | 0.0001 to 10 |
| CC(C)(C#N)CNC(=O)c1cccc(-c2cnc3[nH]c(C4=CCCCC4)cc3c2)n1 [Compound P-0123, N-(2-cyano-2-methyl-propyl)-6-[2-(cyclohexen-1-yl)-1H-pyrrolo[2,3-b]pyridin-5-yl]pyridine-2-carboxamide] | 0.0001 to 10 | 0.0001 to 10 |
| N#CCCNC(=O)c1cccc(-c2cnc3[nH]c(-c4ccccc4)c(Cl)c3c2)n1 [Compound P-0125, 6-(3-chloro-2-phenyl-1H-pyrrolo[2,3-b]pyridin-5-yl)-N-(2-cyanoethyl)pyridine-2-carboxamide] | 0.0001 to 10 | 0.0001 to 10 |
| CC(C)(C#N)CNC(=O)c1cccc(-c2cnc3[nH]c(-c4ccccc4)c(Br)c3c2)n1 [Compound P-0126, 6-(3-bromo-2-phenyl-1H-pyrrolo[2,3-b]pyridin-5-yl)-N-(2-cyano-2-methyl-propyl)pyridine-2-carboxamide] | 0.0001 to 10 | 0.0001 to 10 |
| CC(C)(C#N)CNC(=O)c1cccc(-c2cnc3[nH]c(-c4ccccc4)c(I)c3c2)n1 [Compound P-0127, N-(2-cyano-2-methyl-propyl)-6-(3-iodo-2-phenyl-1H-pyrrolo[2,3-b]pyridin-5-yl)pyridine-2-carboxamide] | 0.0001 to 10 | 0.0001 to 10 |
| Cc1cc(C#N)ccc1-c1cc2cc(-c3cccc(C(=O)N4CCC(C#N)C4)n3)cnc2[nH]1 (stereo not shown) [Compound P-0130, 1-[6-[2-(4-cyano-2-methyl-phenyl)-1H-pyrrolo[2,3-b]pyridin-5-yl]pyridine-2-carbonyl]pyrrolidine-3-carbonitrile] | 0.0001 to 10 | 0.0001 to 10 |
| CC1(C)CC=C(c2cc3cc(-c4cccc(C(=O)N5CCC(C#N)C5)n4)cnc3[nH]2)CC1 (stereo not shown) [Compound P-0131, 1-[6-[2-(4,4-dimethylcyclohexen-1-yl)-1H-pyrrolo[2,3-b]pyridin-5-yl]pyridine-2-carbonyl]pyrrolidine-3-carbonitrile] | 0.0001 to 10 | 0.0001 to 10 |
| N#CC1CCN(C(=O)c2cccc(-c3cnc4[nH]c(C5=CCOCC5)cc4c3)n2)C1 (stereo not shown) [Compound P-0132, 1-[6-[2-(3,6-dihydro-2H-pyran-4-yl)-1H-pyrrolo[2,3-b]pyridin-5-yl]pyridine-2-carbonyl]pyrrolidine-3-carbonitrile] | 0.0001 to 10 | 0.0001 to 10 |

Continued, values first:

| IC50 [1] [µM] | IC50 (FLT3-ITD) [µM] | SMILES |
| --- | --- | --- |
| 0.0001 to 10 | 0.0001 to 10 | N#Cc1cccc(-c2cc3cc(-c4cccc(C(=O)N5CCC(C#N)C5)n4)cnc3[nH]2)c1 (stereo not shown) [Compound P-0133, 1-[6-[2-(3-cyanophenyl)-1H-pyrrolo[2,3-b]pyridin-5-yl]pyridine-2-carbonyl]pyrrolidine-3-carbonitrile] |
| 0.0001 to 10 | 0.0001 to 10 | N#CC1CCN(C(=O)c2cccc(-c3cnc4[nH]c(-c5cnn(C(F)F)c5)cc4c3)n2)C1 (stereo not shown) [Compound P-0134, 1-[6-[2-[1-(difluoromethyl)pyrazol-4-yl]-1H-pyrrolo[2,3-b]pyridin-5-yl]pyridine-2-carbonyl]pyrrolidine-3-carbonitrile] |
| 0.0001 to 10 | 0.0001 to 10 | CC(C)(C)OC(=O)N1CC=C(c2cc3cc(-c4cccc(C(=O)N5CCC(C#N)C5)n4)cnc3[nH]2)C1 (stereo not shown) [Compound P-0135, tert-butyl 3-[5-[6-(3-cyanopyrrolidine-1-carbonyl)-2-pyridyl]-1H-pyrrolo[2,3-b]pyridin-2-yl]-2,5-dihydropyrrole-1-carboxylate] |
| 0.0001 to 10 | 0.0001 to 10 | N#CC1CCN(C(=O)c2cccc(-c3cnc4[nH]c(C5=CCN(C(=O)C6CC6)C5)cc4c3)n2)C1 (stereo not shown) [Compound P-0136, 1-[6-[2-[1-(cyclopropanecarbonyl)-2,5-dihydropyrrol-3-yl]-1H-pyrrolo[2,3-b]pyridin-5-yl]pyridine-2-carbonyl]pyrrolidine-3-carbonitrile] |
| 0.0001 to 10 | 0.0001 to 10 | N#CC1(CNC(=O)c2cccc(-c3cnc4[nH]c(-c5ccccc5)cc4c3)n2)CC1 [Compound P-0137, N-[(1-cyanocyclopropyl)methyl]-6-(2-phenyl-1H-pyrrolo[2,3-b]pyridin-5-yl)pyridine-2-carboxamide] |
| 0.0001 to 10 | 0.0001 to 10 | CC(C)(C#N)CNC(=O)c1cccc(-c2cnc3[nH]c(-c4ccccc4)c(Cl)c3c2)n1 [Compound P-0138, 6-(3-chloro-2-phenyl-1H-pyrrolo[2,3-b]pyridin-5-yl)-N-(2-cyano-2-methyl-propyl)pyridine-2-carboxamide] |
| 0.0001 to 10 | 0.0001 to 10 | N#CC1(NC(=O)c2cccc(-c3cnc4[nH]c(-c5ccccc5)c(Cl)c4c3)n2)CC1 [Compound P-0139, 6-(3-chloro-2-phenyl-1H-pyrrolo[2,3-b]pyridin-5-yl)-N-(1-cyanocyclopropyl)pyridine-2-carboxamide] |
| 0.0001 to 10 | 0.0001 to 10 | CC(C)(C)NC(=O)c1cccc(-c2cnc3[nH]c(-c4ccccc4)cc3c2)n1 [Compound P-0140, N-tert-butyl-6-(2-phenyl-1H-pyrrolo[2,3-b]pyridin-5-yl)pyridine-2-carboxamide] |
| 0.0001 to 10 | 0.0001 to 10 | CC(C)(C#N)CNC(=O)c1cccc(-c2cnc3[nH]c(C4=CCN(C(=O)C5CC5)C4)cc3c2)n1 [Compound P-0141, N-(2-cyano-2-methyl-propyl)-6-[2-[1-(cyclopropanecarbonyl)-2,5-dihydropyrrol-3-yl]-1H-pyrrolo[2,3-b]pyridin-5-yl]pyridine-2-carboxamide] |
